# System: monocytes (phagocytosis of anti-D opsonized RBCs)
# Test: Monocyte monolayer assay (MMA), phagocytosis of anti-D opsonized RBCs
# Format: cell-based
# Settings: Monocyte; percent inhibition of phagocytosis of anti-D opsonized RBCs by monocytes; compound at 5 micromolar
# Protocol: Monocyte monolayer assay. The monocyte monolayer assay (MMA) was performed as previously described (Rampersad, G. C.; Suck, G; Sakac, D; Fahim, S; Foo, A; Denomme, G. A.; Langler, R. F.; Branch, D. R. Transfusion 2005, 45, 384; Foo, A. H.; Fletcher, S. P.; Langler, R. F.; Porter, C. H.; Branch, D. R. Transfusion 2007, 47, 290; Branch, D. R.; Gallagher, M. T.; Mison, A. P.; Sy Siok Hian, A. L.; Petz, L. D. Br. J. Haematol. 1984, 56, 19; Gallagher, M. T.; Branch, D. R.; Mison, A.; Petz, L. D. Exp. Hematol. 1983, 11, 82) in the above 4 references with slight modification. Briefly, peripheral blood mononuclear cells (PBMC) containing monocytes were isolated by ficoll-paque density gradient centrifugation and incubated overnight at 37° C. under 5% CO2 atmosphere. PBMCs were then layered onto chamber slides (Labtek, Thermo Scienctific) and incubated at 37° C., 5% CO2 for 1 hr to allow the monocytes to adhere. Following an aspiration of non-adherent cells, compounds were added at various concentrations to the adhered cells and further incubated for an additional hour. The compounds were aspirated and the monocytes treated with anti-D opsonized RBCs at the aforementioned incubation conditions for an additional 2 hrs. The slides were analyzed under phase microscopy for phagocytosis. A minimum of 100 monocytes were counted per sample and the number of observed RBCs that were phagocytosed were counted and normalized to a positive control to generate a phagocytosis index. Percent inhibition of phagocytosis was calculated as the percentage of control phagocytosis (phagocytosis of opsonized RBCs with compound diluent only).
row,Compound,inhibition at 5 µM [%]
1,"Cc1cc(CCc2cc(C)nn2-c2ccccc2)n(-c2ccccc2)n1 [Compound 14, 1,2-Bis(3-methyl-1-phenyl-1H-pyrazol-5-yl)ethane]",≤ 16
2,"Cc1cc(COc2cc(C)nn2-c2ccccc2)n(-c2ccccc2)n1 [Compound 15, 3-Methyl-5-((3-methyl-1-phenyl-1H-pyrazol-5-yl)methoxy)-1-phenyl-1H-pyrazole]",≤ 14
3,"Cc1cc(CNCc2cc(C)nn2-c2ccccc2)n(-c2ccccc2)n1 [Compound 18, Bis((3-methyl-1-phenyl-1H-pyrazol-5-yl)methyl)amine]",20
4,"Cc1cc(OCCOc2cc(C)nn2-c2ccccc2)n(-c2ccccc2)n1 [Compound 20, 1,2-Bis(3-methyl-1-phenyl-1H-pyrazol-5-yloxy)ethane]",4 to 14
5,"Cc1cc(Oc2c([N+](=O)[O-])c(C)nn2-c2ccccc2)n(-c2ccccc2)n1 [Compound 23, 3-Methyl-5-(3-methyl-1-phenyl-1H-pyrazol-5-yloxy)-4-nitro-1-phenyl-1H-pyrazole]",12
6,"Cc1cc(Oc2c(N)c(C)nn2-c2ccccc2)n(-c2ccccc2)n1 [Compound 24, 3-Methyl-5-(3-methyl-1-phenyl-1H-pyrazol-5-yloxy)-1-phenyl-1H-pyrazol-4-amine]",2
7,"Cc1cc(COc2cc(C)nn2-c2ccc([N+](=O)[O-])cc2)n(-c2ccccc2)n1 [Compound 28, 3-Methyl-5-({[3-methyl-1-(4-nitrophenyl)-1H-pyrazol-5-yl]oxy}methyl)-1-phenyl-1H-pyrazole]",2 to 16
8,"Cc1cc(OCc2cc(C)nn2-c2ccccc2)n(CC2CCCCC2)n1 [Compound 37, 1-(Cyclohexylmethyl)-3-methyl-5-((3-methyl-1-phenyl-1H-pyrazol-5-yl)methoxy)-1H-pyrazole]",33 to 45
9,"Cc1cc(COc2cc(C)nn2C2CCCC2)n(-c2ccccc2)n1 [Compound 41, 1-Cyclopentyl-3-methyl-5-((3-methyl-1-phenyl-1H-pyrazol-5-yl)methoxy)-1H-pyrazole]",≤ 17
10,"Cc1cc(OCc2cc(C)nn2-c2ccccc2)n(CCN)n1 [Compound 47, 2-(3-Methyl-5-((3-methyl-1-phenyl-1H-pyrazol-5-yl)methoxy)-1H-pyrazol-1-yl)ethanamine]",5 to 33
11,"Cc1cc(OCc2cc(C)nn2-c2ccccc2)n(CC(=O)O)n1 [Compound 48, 2-(3-Methyl-5-((3-methyl-1-phenyl-1H-pyrazol-5-yl)methoxy)-1H-pyrazol-1-yl)acetic acid]",4 to 10
12,"Cc1cc(O)n(Cc2cc(C)nn2-c2ccccc2)n1 [Compound 50, 3-methyl-1-((3-methyl-1-phenyl-1H-pyrazol-5-yl)methyl)-1H-pyrazol-5-ol]",27 to 58
13,"Cc1cc(OCC2CCCN2Cc2ccccc2)n(-c2ccccc2)n1 (stereo not shown) [Compound 53, 5-((1-Benzylpyrrolidin-2-yl)methoxy)-3-methyl-1-phenyl-1H-pyrazole]",5 to 15

# Same assay, conditions: percent inhibition of phagocytosis of anti-D opsonized RBCs by monocytes; compound at 5 micromolar
row,Compound,Activity @ 5 micromolar (%)
1,Cc1cc(OCc2cc(C)nn2-c2ccccc2)[nH]n1 [Compound 49],6-26%

# System: preventive mouse model of ITP (anti-platelet antibody, rat anti-mouse CD41)
# Test: Preventive mouse model of ITP, compound given IP or IV
# Format: in vivo, Mice (BALB/c)
# Settings: i.p. (40 mg/kg) or i.v. (16 mg/kg); anti-CD41 1.4 μg daily from Day 0; FIG. 1
# Protocol: Mice (BALB/c) were treated with an anti-platelet antibody (rat anti-mouse CD41 using 1.4 μg constant dose) daily starting at Day 0 to induce ITP. Platelet counts at Day 2, when a nadir is reached in this model, are shown for untreated mice, mice treated with anti-CD41 only, mice treated with IVIG (1 g/kg) (positive control for ITP amelioration), and mice treated with Compound 50 i.p. (40 mg/kg) or i.v. (16 mg/kg). Treatment groups: n=5 mice per group; control: n=3. Statistical significance by one-way ANOVA with Dunnett posthoc test and is indicated: ** p<0.01; *** p<0.001.
row,Compound,Amelioration of ITP (platelet counts at Day 2)
1,"Cc1cc(O)n(Cc2cc(C)nn2-c2ccccc2)n1 [Compound 50, 3-methyl-1-((3-methyl-1-phenyl-1H-pyrazol-5-yl)methyl)-1H-pyrazol-5-ol]",ameliorates ITP

# System: preventive mouse model of ITP (anti-platelet antibody, rat anti-mouse CD41)
# Test: Preventive mouse model of ITP, compound given subcutaneously
# Format: in vivo, Mice
# Settings: SC twice per day (2 sites, 2 mg/ml) starting at Day 0; anti-CD41 1.4 μg daily; FIG. 2
# Protocol: Mice were treated as above with an anti-platelet antibody (rat anti-mouse CD41 using 1.4 μg constant dose) daily starting at Day 0 to induce ITP. Compound 50 was given SC twice per day (2 sites, 2 mg/ml) starting at Day 0. IVIg (1 g/kg) was given on Day 2 for comparison as this is considered the therapeutic dose of IVIg. Treatment groups: n=5 mice per group; control (untreated): n=3. Statistical significance by one-way ANOVA with Dunnett posthoc test and is indicated: ** p<0.01; *** p<0.001.
row,Compound,Amelioration of ITP
1,"Cc1cc(O)n(Cc2cc(C)nn2-c2ccccc2)n1 [Compound 50, 3-methyl-1-((3-methyl-1-phenyl-1H-pyrazol-5-yl)methyl)-1H-pyrazol-5-ol]",efficacious for the amelioration of ITP

# From patent US11090288B2, “Pyrazole derivatives and their uses thereof” (Canadian Blood Services, priority 2013, dated 2021)
